The target of assay [1] is Epidermal growth factor receptor (Homo sapiens) (UniProt P00533). The assay is described as follows: Inhibition of human N-terminal GST-tagged EGFR cytoplasmic domain (669 to 1210 residues) expressed in baculovirus expression system using fluorescence labelled srctide as substrate at 50 times IC50 by electrophoretic mobility shift assay relative to control. (In general: Mobility shift assays separate free from complexed probe on a gel.)

Assay [2] deals with Ephrin type-A receptor 2 (Homo sapiens) (UniProt P29317). The assay is described as follows: Inhibition of human N-terminal GST-tagged EPHA2 cytoplasmic domain (572 to 976 residues) expressed in baculovirus expression system using fluorescence labelled Blk/Lyntide as substrate at 50 times IC50 by electrophoretic mobility shift assay relative to control.
The target in assay [3] is Receptor-type tyrosine-protein kinase FLT3 (Homo sapiens) (UniProt P36888). The assay is described as follows: Inhibition of human N-terminal GST-tagged FLT3 cytoplasmic domain (564 to 993 residues) expressed in baculovirus expression system using fluorescence labelled srctide as substrate at 50 times IC50 by electrophoretic mobility shift assay relative to control.
Assay [4] deals with Vascular endothelial growth factor receptor 2 (Homo sapiens) (UniProt P35968). Description: Inhibition of human N-terminal GST-tagged KDR cytoplasmic domain (790 to 1356 residues) expressed in baculovirus expression system using fluorescence labelled CSKtide as substrate at 50 times IC50 by electrophoretic mobility shift assay relative to control.
Assay [5] concerns the target Hepatocyte growth factor receptor (Homo sapiens) (UniProt P08581). The assay is described as follows: Inhibition of human N-terminal GST-tagged MET cytoplasmic domain (956 to 1390 residues) expressed in baculovirus expression system using fluorescence labelled srctide as substrate at 50 times IC50 by electrophoretic mobility shift assay relative to control.
Assay [6] addresses Platelet-derived growth factor receptor alpha (Homo sapiens) (UniProt P16234). The assay is described as follows: Inhibition of human N-terminal GST-tagged PDGFRalpha cytoplasmic domain (550 to 1089 residues) expressed in baculovirus expression system using fluorescence labelled CSKtide as substrate at 50 times IC50 by electrophoretic mobility shift assay relative to control.

For assay [7], the target named is Proto-oncogene tyrosine-protein kinase Src (Homo sapiens) (UniProt P12931). Description: Inhibition of full length human N-terminal GST-tagged SRC (1 to 536 residues) expressed in baculovirus expression system using fluorescence labelled srctide as substrate at 50 times IC50 by electrophoretic mobility shift assay relative to control.
Assay [8] deals with High affinity nerve growth factor receptor (Homo sapiens, UniProt P04629). Description: Inhibition of human N-terminal GST-tagged TRKA cytoplasmic domain (436 to 790 residues) expressed in baculovirus expression system using fluorescence labelled CSKtide as substrate at 50 times IC50 by electrophoretic mobility shift assay relative to control.
Assay [9] deals with RAC-alpha serine/threonine-protein kinase (Homo sapiens) (UniProt P31749). The assay is described as follows: Inhibition of human N-terminal GST-tagged AKT1 catalytic domain (104 to 480 residues) expressed in baculovirus expression system using fluorescence labelled crosstide as substrate at 50 times IC50 by electrophoretic mobility shift assay relative to control.
For assay [10], the target named is AMP-activated protein kinase, AMPK (Homo sapiens) (UniProt P54646+O43741+P54619+Q9UGJ0+Q9Y478+Q13131+Q9UGI9). The assay is described as follows: Inhibition of human N-terminal GST-tagged AMPKalpha1 (1 to 550 residues)/beta1 (1 to 270 residues)/gamma1 (1 to 331 residues) expressed in baculovirus expression system using fluorescence labelled SAMS peptide substrate at 50 times IC50 by electrophoretic mobility shift assay relative to control.

Assay [11] deals with T1, Aurora kinase A (Homo sapiens) (UniProt O14965).
T1 sequence (whole entry): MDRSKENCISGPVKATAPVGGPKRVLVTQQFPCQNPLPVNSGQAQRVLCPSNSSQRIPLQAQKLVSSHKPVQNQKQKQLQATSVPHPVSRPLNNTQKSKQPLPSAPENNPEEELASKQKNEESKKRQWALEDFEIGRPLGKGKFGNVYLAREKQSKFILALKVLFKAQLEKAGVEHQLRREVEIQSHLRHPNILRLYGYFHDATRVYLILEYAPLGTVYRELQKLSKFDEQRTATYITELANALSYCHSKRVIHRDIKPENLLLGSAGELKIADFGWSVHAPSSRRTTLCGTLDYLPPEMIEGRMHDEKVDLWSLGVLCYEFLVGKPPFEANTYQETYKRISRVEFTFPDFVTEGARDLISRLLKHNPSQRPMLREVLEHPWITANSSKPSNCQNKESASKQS
Description: Inhibition of full length human N-terminal GST-tagged Aurora A (1 to 403 residues) expressed in baculovirus expression system using fluorescence labelled kemptide as substrate at 50 times IC50 by electrophoretic mobility shift assay relative to control.

In assay [12] the target is Casein kinase I isoform epsilon (Homo sapiens) (UniProt P49674). Description: Inhibition of human N-terminal GST-tagged CK1epsilon catalytic domain (1 to 348 residues) expressed in baculovirus expression system using fluorescence labelled CKtide as substrate at 50 times IC50 by electrophoretic mobility shift assay relative to control.
The target in assay [13] is Dual specificity tyrosine-phosphorylation-regulated kinase 1B (Homo sapiens) (UniProt Q9Y463). The assay is described as follows: Inhibition of full length human N-terminal GST-tagged DYRK1B (1 to 629 residues) expressed in baculovirus expression system using fluorescence labelled DYRKtide-F as substrate at 50 times IC50 by electrophoretic mobility shift assay relative to control.

The target in assay [14] is Mitogen-activated protein kinase 1 (Homo sapiens) (UniProt P28482). Description: Inhibition of full length human N-terminal GST-tagged ERK2 (1 to 360 residues) expressed in Escherichia coli using fluorescence labelled modified Erktide as substrate at 50 times IC50 by electrophoretic mobility shift assay relative to control.
Assay [15] concerns the target MAP kinase-activated protein kinase 2 (Homo sapiens) (UniProt P49137). Description: Inhibition of full length human N-terminal GST-tagged MAPKAPK2 (1 to 400 residues) expressed in baculovirus expression system coexpressing human His-tagged p38beta (1 to 364 residues)/MAP2K6 (1 to 334 residues) using fluorescence labelled GS peptide substrate at 50 times IC50 by electrophoretic mobility shift assay relative to control.

Assay [16] addresses Serine/threonine-protein kinase pim-1 (Homo sapiens) (UniProt P11309). The assay is described as follows: Inhibition of full length human N-terminal His-tagged PIM1 (1 to 313 residues) expressed in baculovirus expression system using fluorescence labelled S6K2 peptide substrate at 50 times IC50 by electrophoretic mobility shift assay relative to control.
Assay [17] addresses cAMP-dependent protein kinase catalytic subunit alpha (Homo sapiens) (UniProt P17612). Description: Inhibition of full length human N-terminal GST-tagged PKACalpha (1 to 351 residues) expressed in baculovirus expression system using fluorescence labelled kemptide as substrate at 50 times IC50 by electrophoretic mobility shift assay relative to control.

As a reminder, the inhibition is the drop in the measured response relative to a control, in per cent.

Take `O=C(Nc1ccc(CN2CCN(c3ccccc3)CC2)cc1)c1n[nH]c2ccccc12`: the inhibition in assay [1] is 1.7%; in assay [2], 0.9%; in assay [3], 100%; in [4], 15.8%; in [5], -0.4%; in assay [6], 9.8%. Further, the inhibition in assay [7] is 0.6%; in [8], 80.5%; in assay [9] it was -3.3%; in assay [10] it was 9.2%; in assay [11], 6.1%; in assay [12], 19.3%. For the same molecule, the inhibition was 12.7% in [13]; -2.1% in assay [14]; 9.7% in assay [15]; 6% in assay [16]; -1.4% in assay [17].
On to `O=C(Nc1ccc(C(=O)N2CCN(c3ccccc3)CC2)cc1)c1n[nH]c2ccccc12`, for which the inhibition is 0.1% in [1]; -1.6% in assay [2]; 99.7% in assay [3]; 34.2% in [4]; -0.6% in assay [5]; 47.2% in [6]. The inhibition in assay [7] is 2.5%; in assay [8] it was 90.1%; in [9] it was -1.1%; in assay [10], 18%; in assay [11], 31.3%; in assay [12] it was 21.3%. Also, the inhibition was 29.4% in assay [13]; -0.8% in assay [14]; -7.5% in [15]; 3% in assay [16]; 2.7% in [17].
Consider `O=C(Nc1ccccc1)c1n[nH]c2ccccc12`, for which the inhibition in [1] worked out at 9.1%; in assay [2] it was 0.6%; in [3] it was 96.7%; in assay [4], 44.2%; in [5], 4.6%; in assay [6], 26.3%. Moreover, the inhibition in assay [7] is 6.1%; in assay [8], 95%; in assay [9] it was -2.4%; in assay [10], 46%; in [11] it was 45.2%; in [12] it was 51.3%. Moreover, the inhibition in [13] came to 53.6%; in [14] it was 7%; in assay [15], 5.1%; in [16] it was 3.1%; in [17], 3.1%.
